One assay concerns the target T1, GST tagged PIP4KtypeIIA (Homo sapiens, UniProt P48426).
T1 construct: made in house; host or cells: E. coli
T1 sequence (P48426 1-406): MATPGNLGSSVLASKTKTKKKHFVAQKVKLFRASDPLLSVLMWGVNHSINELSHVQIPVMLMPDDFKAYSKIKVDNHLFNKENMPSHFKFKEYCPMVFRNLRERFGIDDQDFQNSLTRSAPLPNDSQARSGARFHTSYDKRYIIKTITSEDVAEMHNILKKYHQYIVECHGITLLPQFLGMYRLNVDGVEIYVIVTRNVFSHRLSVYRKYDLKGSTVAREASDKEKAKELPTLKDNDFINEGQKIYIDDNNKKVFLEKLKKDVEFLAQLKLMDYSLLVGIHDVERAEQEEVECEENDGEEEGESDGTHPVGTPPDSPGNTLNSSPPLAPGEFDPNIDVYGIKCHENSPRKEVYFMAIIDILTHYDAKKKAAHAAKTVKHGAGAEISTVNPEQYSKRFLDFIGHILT
Put plainly: ADP-glo kinase assay PIP4K 2A (PIP4KtypeIIA inhibition assay). In kind it is biochemical. As to conditions: Table 3; compounds listed under IC50 range headings; 10 uM ATP, 0.5 nM PIP4KIIA. A digest of the protocol: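 Read-out was ADP-Glo luminescence converted to μM ADP, with IC50 plotted as % of no-inhibitor activity against log concentration. Reactions contained 10 μM ATP, 80 μM PI5P with DOPE carrier, and 0.5 nM GST-tagged PIP4KIIA (E. coli-expressed) in pH 7.3 HEPES/MgCl2 buffer with 5% DMSO. Enzyme and compound (≤4.8 μM) were preincubated 1 h at 27 °C before the 1 h reaction.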
In general terms: In ADP-Glo the light output rises with the ADP produced.

Another assay deals with T2, GST tagged PIP4KtypeIIB (Homo sapiens, UniProt P78356).
T2 construct: made in house; host or cells: E. coli
T2 sequence (P78356 1-416): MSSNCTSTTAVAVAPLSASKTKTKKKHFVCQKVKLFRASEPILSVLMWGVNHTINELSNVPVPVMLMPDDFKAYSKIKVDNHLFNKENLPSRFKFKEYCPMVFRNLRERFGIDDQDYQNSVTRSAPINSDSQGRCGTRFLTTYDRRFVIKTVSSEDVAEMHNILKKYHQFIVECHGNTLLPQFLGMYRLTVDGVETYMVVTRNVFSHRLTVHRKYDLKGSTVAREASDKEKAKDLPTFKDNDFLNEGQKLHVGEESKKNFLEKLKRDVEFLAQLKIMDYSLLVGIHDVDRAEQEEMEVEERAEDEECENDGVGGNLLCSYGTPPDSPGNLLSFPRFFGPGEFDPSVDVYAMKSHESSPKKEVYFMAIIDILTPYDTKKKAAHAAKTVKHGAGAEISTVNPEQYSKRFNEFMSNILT
Put plainly: Trans-FI P kinase assay PIP4K2B (PIP4KtypeIIB inhibition assay). As to conditions: Table 4; compounds listed under IC50 range headings; 100 uM GTP, 5 nM PIP4KIIB; read-out: Trans-FI P kinase assays: PIP4K2B IC50. In kind it is biochemical. A digest of the protocol: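 Transcreener FI fluorescence, converted to GDP by calibration, tracked product from 5 nM E. coli-expressed GST-PIP4KIIB acting on 80 uM PI5P (DOPE carrier) with 100 uM GTP. Compound (top 4.8 uM final, 5% DMSO) was preincubated 1 h at 27 C before the 2 h reaction; IC50 fitted from residual activity.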

We go through eleven molecules from US11919902B2, “Aryl-bipyridine amine derivatives as phosphatidylinositol phosphate kinase inhibitors” (HiberCell, Inc., priority 2017, dated 2024).

pIC50: −log10 of the molar value. “And” between values parts separate entries of the source, which are not always exact repeats. Identical values can stand only once. Some results are limits rather than exact numbers.

As to `O=C1CCCN1c1ccc(-c2cncc(-c3ncnc4nc(C5CCC5)[nH]c34)c2)cc1` [Example 289, 1-(4-(5-(8-cyclobutyl-7H-purin-6-yl)pyridin-3-yl)phenyl)pyrrolidin-2-one], the pIC50 is 5.30 to 5.60 against GST tagged PIP4KtypeIIA and 5.60 to 6.00 at GST tagged PIP4KtypeIIB.
`O=C(NCCc1nccs1)c1cc2c(-c3cncc(-c4ccc(N5CCCC5=O)cc4)c3)ccnc2[nH]1` [Example 256, 4-(5-(4-(2-oxopyrrolidin-1-yl)phenyl)pyridin-3-yl)-N-(2-(thiazol-2-yl)ethyl)-1H-pyrrolo[2,3-b]pyridine-2-carboxamide]: the pIC50 is 6.00 to 7.00 against GST tagged PIP4KtypeIIA and 7.00 to 8.00 on GST tagged PIP4KtypeIIB.
`COCc1cc(-c2cncc(-c3ccc(N4CCCC4=O)cc3)c2)n2nc(C)cc2n1` [Example 285, 1-(4-(5-(5-(methoxymethyl)-2-methylpyrazolo[1,5-a]pyrimidin-7-yl)pyridin-3-yl)phenyl)pyrrolidin-2-one]: the pIC50 against GST tagged PIP4KtypeIIA and on GST tagged PIP4KtypeIIB was 5.30 to 5.60 each time.
`O=C(Nc1ccc(-c2cncc(-c3ccnc4[nH]ncc34)c2)cc1)c1cc(C2CCC2)on1` [Example 205, N-(4-(5-(1H-pyrazolo[3,4-b]pyridin-4-yl)pyridin-3-yl)phenyl)-5-cyclobutylisoxazole-3-carboxamide]: the pIC50 on GST tagged PIP4KtypeIIA was less than 5.30; on GST tagged PIP4KtypeIIB, 6.00 to 7.00 and < 5.30.
For the molecule `O=C(NCCc1ccccc1)c1cc2c(-c3cncc(-c4ccc(N5CCCC5=O)cc4)c3)ccnc2[nH]1` [Example 236, 4-(5-(4-(2-oxopyrrolidin-1-yl)phenyl)pyridin-3-yl)-N-phenethyl-1H-pyrrolo[2,3-b]pyridine-2-carboxamide], the pIC50 against GST tagged PIP4KtypeIIA was 6.00 to 7.00; on GST tagged PIP4KtypeIIB, 7.00 to 8.00.
On the same counts, the results for `O=C(NCCc1nn[nH]n1)c1cc2c(-c3cncc(-c4ccc(N5CCCC5=O)cc4)c3)ccnc2[nH]1` [Example 251, N-(2-(2H-tetrazol-5-yl)ethyl)-4-(5-(4-(2-oxopyrrolidin-1-yl)phenyl)pyridin-3-yl)-1H-pyrrolo[2,3-b]pyridine-2-carboxamide] are 6.00 to 7.00 and 7.00 to 8.00.
As for `CN(C)C(=O)c1ccc(-c2cc(-c3ccnc4[nH]c(C(=O)N5CCCC5)cc34)cnc2N)nc1` [Example 141, 2′-amino-N,N-dimethyl-5′-(2-(pyrrolidine-1-carbonyl)-1H-pyrrolo[2,3-b]pyridin-4-yl)-[2,3′-bipyridine]-5-carboxamide], the pIC50 on GST tagged PIP4KtypeIIA was 6.00 to 7.00; on GST tagged PIP4KtypeIIB, 7.00 to 8.00.
On the same counts, the results for `O=C(NC1CC1)c1cc2c(-c3cncc(-c4ccc(N5CCCC5=O)cc4)c3)ccnc2[nH]1` [Example 242, N-cyclopropyl-4-(5-(4-(2-oxopyrrolidin-1-yl)phenyl)pyridin-3-yl)-1H-pyrrolo[2,3-b]pyridine-2-carboxamide] are 6.00 to 7.00 and 7.00 to 8.00.
For the molecule `O=C(Nc1nccc(-c2cncc(-c3ccc(N4CCCC4=O)cc3)c2)n1)C1CCC1` [Example 287, N-(4-(5-(4-(2-oxopyrrolidin-1-yl)phenyl)pyridin-3-yl)pyrimidin-2-yl)cyclobutanecarboxamide], the pIC50 against GST tagged PIP4KtypeIIA and on GST tagged PIP4KtypeIIB was 6.00 to 7.00 in each case.
In the case of `O=C(NCCc1ccc[nH]1)c1cc2c(-c3cncc(-c4ccc(N5CCCC5=O)cc4)c3)ccnc2[nH]1` [Example 261, N-(2-(1H-pyrrol-2-yl)ethyl)-4-(5-(4-(2-oxopyrrolidin-1-yl)phenyl)pyridin-3-yl)-1H-pyrrolo[2,3-b]pyridine-2-carboxamide], the pIC50 at GST tagged PIP4KtypeIIA is 6.00 to 7.00; on GST tagged PIP4KtypeIIB, 7.00 to 8.00.
On the same counts, the results for `C[C@@H]1CC(=O)N(c2ccc(-c3cncc(-c4ccnc5c4cc4n5CCN(C)C4=O)c3)cc2)C1` [Example 198, (R)-7-methyl-4-(5-(4-(4-methyl-2-oxopyrrolidin-1-yl)phenyl)pyridin-3-yl)-8,9-dihydropyrido[3′,2′:4,5]pyrrolo[1,2-a]pyrazin-6(7H)-one] are 6.00 to 7.00 and 7.00 to 8.00.

A word on the pIC50: it is the IC50 on a negative log10 scale, so that one unit is a factor of ten.
